Measured values reported in ChEMBL document CHEMBL5335767, “Synthesis and study of new siderophore analog-ciprofloxacin conjugates with antibiotic activities against Pseudomonas aeruginosa and Burkholderia spp” (Eur J Med Chem, 2023).
Converted amounts (≈) assume the structure as drawn.

Experiments:
Pseudomonas aeruginosa [1] = assay: Antibacterial activity against Pseudomonas aeruginosa PAO1 under muller hinton medium by CLSI protocol based microdilution method; assay type: functional
Pseudomonas aeruginosa [2] = assay: Antibacterial activity against Pseudomonas aeruginosa PAO1 under succinate minimum medium by CLSI protocol based microdilution method; assay type: functional
Pseudomonas aeruginosa [3] = assay: Antibacterial activity against Pseudomonas aeruginosa PAO1 under 1 uM FeCl3 medium by CLSI protocol based microdilution method; assay type: functional
Pseudomonas aeruginosa [4] = assay: Antibacterial activity against Pseudomonas aeruginosa PAD07 under muller hinton medium by CLSI protocol based microdilution method; assay type: functional
Pseudomonas aeruginosa [5] = assay: Antibacterial activity against Pseudomonas aeruginosa PAD07 under succinate minimum medium by CLSI protocol based microdilution method; assay type: functional
Pseudomonas aeruginosa [6] = assay: Antibacterial activity against Pseudomonas aeruginosa PAD07 under 1 uM FeCl3 medium by CLSI protocol based microdilution method; assay type: functional
Pseudomonas aeruginosa [7] = assay: Antibacterial activity against Pseudomonas aeruginosa AM85 under muller hinton medium by CLSI protocol based microdilution method; assay type: functional
Pseudomonas aeruginosa [8] = assay: Antibacterial activity against Pseudomonas aeruginosa AM85 under succinate minimum medium by CLSI protocol based microdilution method; assay type: functional
Pseudomonas aeruginosa [9] = assay: Antibacterial activity against Pseudomonas aeruginosa AM85 under 1 uM FeCl3 medium by CLSI protocol based microdilution method; assay type: functional
[10] = system: Burkholderia pseudomallei; assay: Antibacterial activity against Burkholderia pseudomallei BPS2020IRBA001 under muller hinton medium by CLSI protocol based microdilution method; assay type: functional
[11] = system: Burkholderia pseudomallei; assay: Antibacterial activity against Burkholderia pseudomallei BPS2020IRBA001 under succinate minimum medium by CLSI protocol based microdilution method; assay type: functional
[12] = system: Burkholderia pseudomallei; assay: Antibacterial activity against Burkholderia pseudomallei BPS2020IRBA002 under muller hinton medium by CLSI protocol based microdilution method; assay type: functional
[13] = system: Burkholderia pseudomallei; assay: Antibacterial activity against Burkholderia pseudomallei BPS2020IRBA002 under succinate minimum medium by CLSI protocol based microdilution method; assay type: functional
[14] = system: Burkholderia pseudomallei; assay: Antibacterial activity against Burkholderia pseudomallei BPS2020IRBA002 under 1 uM FeCl3 medium by CLSI protocol based microdilution method; assay type: functional
[15] = system: Burkholderia pseudomallei; assay: Antibacterial activity against Burkholderia pseudomallei K96243 under succinate minimum medium by CLSI protocol based microdilution method; assay type: functional
[16] = system: Burkholderia pseudomallei; assay: Antibacterial activity against Burkholderia pseudomallei K96243 under 1 uM FeCl3 medium by CLSI protocol based microdilution method; assay type: functional
[17] = system: Burkholderia pseudomallei; assay: Antibacterial activity against Burkholderia pseudomallei BPS2020IRBA003 under muller hinton medium by CLSI protocol based microdilution method; assay type: functional
[18] = system: Burkholderia pseudomallei; assay: Antibacterial activity against Burkholderia pseudomallei BPS2020IRBA004 under muller hinton medium by CLSI protocol based microdilution method; assay type: functional
[19] = system: Burkholderia pseudomallei; assay: Antibacterial activity against Burkholderia pseudomallei BPS2020IRBA005 under succinate minimum medium by CLSI protocol based microdilution method; assay type: functional
[20] = system: Burkholderia thailandensis; assay: Antibacterial activity against Burkholderia thailandensis E264 under muller hinton medium by CLSI protocol based microdilution method; assay type: functional
[21] = system: Burkholderia thailandensis; assay: Antibacterial activity against Burkholderia thailandensis E264 under succinate minimum medium by CLSI protocol based microdilution method; assay type: functional
[22] = system: Burkholderia thailandensis; assay: Antibacterial activity against Burkholderia thailandensis E264 under 1 uM FeCl3 medium by CLSI protocol based microdilution method; assay type: functional
[23] = system: Burkholderia thailandensis; assay: Antibacterial activity against Burkholderia thailandensis E264TS32C10 under muller hinton medium by CLSI protocol based microdilution method; assay type: functional
[24] = system: Burkholderia thailandensis; assay: Antibacterial activity against Burkholderia thailandensis E264TS32C10 under succinate minimum medium by CLSI protocol based microdilution method; assay type: functional
[25] = system: Burkholderia thailandensis; assay: Antibacterial activity against Burkholderia thailandensis E264TS32C10 under 1 uM FeCl3 medium by CLSI protocol based microdilution method; assay type: functional
[26] = system: Burkholderia thailandensis; assay: Antibacterial activity against Burkholderia thailandensis E264TS32C12 under muller hinton medium by CLSI protocol based microdilution method; assay type: functional
[27] = system: Burkholderia thailandensis; assay: Antibacterial activity against Burkholderia thailandensis E264TS32C12 under succinate minimum medium by CLSI protocol based microdilution method; assay type: functional
[28] = system: Burkholderia thailandensis; assay: Antibacterial activity against Burkholderia thailandensis E264TS32C12 under 1 uM FeCl3 medium by CLSI protocol based microdilution method; assay type: functional
[29] = system: Burkholderia thailandensis; assay: Antibacterial activity against Burkholderia thailandensis E264TS32C47 under muller hinton medium by CLSI protocol based microdilution method; assay type: functional
[30] = system: Burkholderia thailandensis; assay: Antibacterial activity against Burkholderia thailandensis E264TS32C47 under succinate minimum medium by CLSI protocol based microdilution method; assay type: functional
[31] = system: Burkholderia thailandensis; assay: Antibacterial activity against Burkholderia thailandensis E264TS32C47 under 1 uM FeCl3 medium by CLSI protocol based microdilution method; assay type: functional
[32] = system: Burkholderia pseudomallei; assay: Antibacterial activity against Burkholderia pseudomallei BPS2020IRBA005 under 1 uM FeCl3 medium after 48 hrs by CLSI protocol based microdilution method; assay type: functional
[33] = system: Burkholderia pseudomallei; assay: Antibacterial activity against Burkholderia pseudomallei BPS2020IRBA001 under 1 uM FeCl3 medium by CLSI protocol based microdilution method; assay type: functional
[34] = system: Burkholderia pseudomallei; assay: Antibacterial activity against Burkholderia pseudomallei K96243 under muller hinton medium by CLSI protocol based microdilution method; assay type: functional
[35] = system: Burkholderia pseudomallei; assay: Antibacterial activity against Burkholderia pseudomallei BPS2020IRBA003 under succinate minimum medium by CLSI protocol based microdilution method; assay type: functional
[36] = system: Burkholderia pseudomallei; assay: Antibacterial activity against Burkholderia pseudomallei BPS2020IRBA003 under 1 uM FeCl3 medium by CLSI protocol based microdilution method; assay type: functional
[37] = system: Burkholderia pseudomallei; assay: Antibacterial activity against Burkholderia pseudomallei BPS2020IRBA005 under muller hinton medium by CLSI protocol based microdilution method; assay type: functional
[38] = Antibacterial activity against Burkholderia pseudomallei BPS2020IRBA005 under 1 uM FeCl3 medium by CLSI protocol based microdilution method; assay type: functional; conditions: Burkholderia thailandensis
HepG2 = assay: Cytotoxicity against human HepG2 cells at 28 ug/ml after 48 hrs by CellTiter-Glo luminescent cell viability assay; assay type: toxicity, cell-based; conditions: hepg2, 48 h, dose 28 µg/ml
Lipid bilayer = assay: Binding affinity to bacterial inner membrane mimic PE/PG/CL/PC (60:20:10:10) assessed as maximum insertion pressure
[39] = Stability in aqueous solution assessed as half life; assay type: physicochemical

SMILES | MIC (Pseudomonas aeruginosa [1]) [µg/mL] | MIC (Pseudomonas aeruginosa [2]) [µg/mL] | MIC (Pseudomonas aeruginosa [3]) [µg/mL] | MIC (Pseudomonas aeruginosa [4]) [µg/mL] | MIC (Pseudomonas aeruginosa [5]) [µg/mL] | MIC (Pseudomonas aeruginosa [6]) [µg/mL] | MIC (Pseudomonas aeruginosa [7]) [µg/mL] | MIC (Pseudomonas aeruginosa [8]) [µg/mL] | MIC (Pseudomonas aeruginosa [9]) [µg/mL] | MIC [10] [µg/mL] | MIC [11] [µg/mL] | MIC [12] [µg/mL] | MIC [13] [µg/mL] | MIC [14] [µg/mL] | MIC [15] [µg/mL] | MIC [16] [µg/mL] | MIC [17] [µg/mL] | MIC [18] [µg/mL] | MIC [19] [µg/mL] | MIC [20] [µg/mL] | other results
CC(C)(O/N=C(\C(=O)N[C@@H]1C(=O)N2C(C(=O)[O-])=C(C[n+]3ccccc3)CS[C@H]12)c1csc(N)n1)C(=O)O [CEFTAZIDIME] | 1 (≈ 1.83 µM) | 0.25 (≈ 0.457 µM) | 1 (≈ 1.83 µM) | 1 (≈ 1.83 µM) | 0.25 (≈ 0.457 µM) | 1 (≈ 1.83 µM) | 4 (≈ 7.32 µM) | 0.25 (≈ 0.457 µM) | 4 (≈ 7.32 µM) | 2 (≈ 3.66 µM) | 2 (≈ 3.66 µM) | 128 (≈ 234 µM) | 64 (≈ 117 µM) | > 128 | 8 (≈ 14.6 µM) | 8 (≈ 14.6 µM) | 2 (≈ 3.66 µM) | 8 (≈ 14.6 µM) | 8 (≈ 14.6 µM) | 4 (≈ 7.32 µM) | MIC [21]: 4 µg/mL (≈ 7.32 µM); MIC [22]: 4 µg/mL (≈ 7.32 µM); MIC [23]: 1 µg/mL (≈ 1.83 µM); MIC [24]: 2 µg/mL (≈ 3.66 µM); MIC [25]: 2 µg/mL (≈ 3.66 µM); MIC [26]: 4 µg/mL (≈ 7.32 µM); MIC [27]: 8 µg/mL (≈ 14.6 µM); MIC [28]: 8 µg/mL (≈ 14.6 µM); MIC [29]: 4 µg/mL (≈ 7.32 µM); MIC [30]: 4 µg/mL (≈ 7.32 µM); MIC [31]: 4 µg/mL (≈ 7.32 µM); MIC [32]: 8 µg/mL (≈ 14.6 µM)
CC(OC(=O)c1cc(=O)c(O)c[nH]1)OC(=O)N1CCN(c2cc3c(cc2F)c(=O)c(C(=O)O)cn3C2CC2)CC1 (configuration not stated) | 1 (≈ 1.8 µM) | 2 (≈ 3.59 µM) | 2 (≈ 3.59 µM) | 0.25 (≈ 0.449 µM) | 0.25 (≈ 0.449 µM) | 0.25 (≈ 0.449 µM) | 32 (≈ 57.5 µM) | 64 (≈ 115 µM) | 64 (≈ 115 µM) | 32 (≈ 57.5 µM) | 32 (≈ 57.5 µM) | 16 (≈ 28.8 µM) | 16 (≈ 28.8 µM) | 16 (≈ 28.8 µM) | 1 (≈ 1.8 µM) | 1 (≈ 1.8 µM) | 2 (≈ 3.59 µM) | 8 (≈ 14.4 µM) | 1 (≈ 1.8 µM) | 4 (≈ 7.19 µM) | MIC [33]: 32 µg/mL (≈ 57.5 µM); MIC [34]: 1 µg/mL (≈ 1.8 µM); MIC [35]: 2 µg/mL (≈ 3.59 µM); MIC [36]: 4 µg/mL (≈ 7.19 µM); MIC [37]: 16 µg/mL (≈ 28.8 µM); MIC [38]: 2 µg/mL (≈ 3.59 µM); MIC [21]: 4 µg/mL (≈ 7.19 µM); MIC [22]: 4 µg/mL (≈ 7.19 µM); MIC [23]: 128 µg/mL (≈ 230 µM); MIC [24]: 32 µg/mL (≈ 57.5 µM); MIC [25]: 32 µg/mL (≈ 57.5 µM); MIC [26]: 16 µg/mL (≈ 28.8 µM); MIC [27]: 16 µg/mL (≈ 28.8 µM); MIC [28]: 8 µg/mL (≈ 14.4 µM); MIC [29]: 8 µg/mL (≈ 14.4 µM); MIC [30]: 8 µg/mL (≈ 14.4 µM); MIC [31]: 4 µg/mL (≈ 7.19 µM); Activity (HepG2): Non-Toxic; Activity (Lipid bilayer): 29.5 mN/meter; half-life [39]: 168 h
